Values of other authors in patent publication US6331660A, “Maize DIMBOA biosynthesis genes” (Dekalb Genetics Corporation, priority 1998, dated 2001).

Molecular target: T1, native E. coli α2β2 complex of tryptophan synthase α (TSA) and tryptophan synthase β (TSB) (Escherichia coli, UniProt P0A877)
T1 construct: by the native E. coli α2β2 complex
Conditions: conversion of indole-3-glycerol phosphate to indole, Weischet et al., 1976

T1 sequence (P0A879 2-397): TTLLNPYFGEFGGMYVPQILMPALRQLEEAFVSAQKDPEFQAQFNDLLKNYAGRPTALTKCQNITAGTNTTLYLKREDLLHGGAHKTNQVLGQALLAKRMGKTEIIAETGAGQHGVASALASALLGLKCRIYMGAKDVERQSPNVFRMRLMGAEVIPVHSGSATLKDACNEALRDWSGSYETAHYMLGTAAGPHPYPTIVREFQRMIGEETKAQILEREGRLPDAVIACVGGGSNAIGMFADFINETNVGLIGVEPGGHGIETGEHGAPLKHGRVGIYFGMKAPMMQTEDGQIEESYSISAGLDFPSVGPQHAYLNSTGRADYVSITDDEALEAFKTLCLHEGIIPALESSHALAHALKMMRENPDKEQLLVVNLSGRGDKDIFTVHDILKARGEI
T1 sequence (P0A877 whole entry): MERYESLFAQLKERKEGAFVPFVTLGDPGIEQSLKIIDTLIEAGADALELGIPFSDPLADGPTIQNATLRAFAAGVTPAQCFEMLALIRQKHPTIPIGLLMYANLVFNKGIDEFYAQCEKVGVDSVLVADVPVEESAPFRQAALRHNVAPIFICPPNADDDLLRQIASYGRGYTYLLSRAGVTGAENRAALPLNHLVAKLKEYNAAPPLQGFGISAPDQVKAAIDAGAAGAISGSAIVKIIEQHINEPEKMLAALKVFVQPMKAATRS

Q: Which kcat does the source give for `O=P(O)(O)OCC(O)C(O)c1c[nH]c2ccccc12` (centres unmarked) [indole-3-glycerol phosphate] here?
A: The kcat was 0.2 s⁻¹.

Q: What about the Km (read-out: Km^indole-3-glycerol phosphate) of the same compound?
A: The Km was 27 µM.
